USRE46943E1, “Radioprotector compounds and methods” (PETER MACCALLUM CANCER INSTITUTE, priority 2010, dated 2018)

Columns and labels:
[1] = test system: transformed human keratinocyte cell line (FEP 1811); experiment: Clonogenic survival cell culture assay for cytotoxicity; format: cell-based; details: Homo sapiens, Keratinocyte, light or radiation study; un-irradiated keratinocytes, one hour drug exposure, colonies counted after eight days; read-out: C50 (concentration of radioprotector that results in 50% clonogenic survival)
Procedure: • i. […] In appropriate cases, tautomers are drawn to illustrate potential hydrogen-bond donating configurations into the minor groove of DNA. • ii. 2-Amino-4-(5′-(4″-methylpiperazin-1″-yl)benzimidazol-2′-yl)aniline was prepared by hydrogenation of 4-(5′-(4″-methylpiperazin-1″-yl)benzimidazol-2′-yl)-2-nitroaniline, using a modification of the method of Kelly et al, Aust. […] 2-Amino-4-(5′-(piperidin-1″-yl)benzimidazol-2′-yl)aniline was prepared by hydrogenation of 2-nitro-4-(5′-(piperidin-1″-yl)benzimidazol-2′-yl)aniline, using a modification of the method of Kelly et al, Aust. […] Ethyl 4-amino-3-nitrobenzenecarboximidate hydrochloride was prepared by reaction of 4-amino-3-nitrobenzonitrile with dry HCl gas in ethanol, using the method of Kelly et al, Aust. […] 5-(4′-Methylpiperazin-1′-yl)-2-nitroaniline was prepared using a modification of the method of Kelly et al, Aust. […] The following chemicals were obtained from the chemical suppliers indicated: 2-furaldehyde (Aldrich), 2-pyridinecarboxaldehyde (Aldrich), 3-fluoropyridine-2-carbaldehyde (Maybridge), 3-trifluoromethylpyridine-2-carboxaldehyde (Apollo Scientific), 6-methyl-2-pyridinecarboxaldehyde (Matrix Scientific), 5-methylpyridine-2-carbonitrile (Apollo Scientific), 4-methyl-2-pyridinecarbonitrile (Aldrich), 4-chloro-2-pyridinecarbonitrile (Aldrich), 4-methoxypicolinonitrile (Combi-Blocks), pyrazinecarbonitrile (Aldrich), 2-quinolinecarbonitrile (Aldrich), 3-isoquinolinecarbonitrile (Aldrich), 1-isoquinolinecarboxylic acid (Aldrich), indazole-3-carboxylic acid (Aldrich), 2-hydroxynicotinic acid (Aldrich), 4-hydroxypiperidine (Aldrich), 1-methylhomopiperazine (Aldrich), 3-hydroxypiperidine (Aldrich), 4-(N-BOC-amino)piperidine (Aldrich), 4-methoxypiperidine (Acros), 4-methyl-3-nitrobenzonitrile (Aldrich), 5-chloro-2-nitroaniline (Aldrich), 2-cyanopyridine (Aldrich), methyl 4-amino-2-methoxybenzoic acid (Aldrich), 4-(trifluoromethyl)-2-pyridinecarbonitrile (Matrix Scientific), cis-2,6-dimethylmorphoiline (Acros), 5-(trifluoromethyl)-2-pyridinecarbonitrile (Advanced Chemical Intermediates) and 5-fluoro-2-pyridinecarbonitrile (Advanced Chemical Intermediates). • ix. […] Melting points were determined using an Electrothermal melting point apparatus, and are uncorrected. […] The abbreviations s for singlet, d for doublet, t for triplet, q for quartet, br for broad and m for muitiplet were used in the assignments of multiplicity. A value approximating the centre of a multiplet is quoted. […] The addition of a few drops of acetic acid to methanol-d4 solutions was used to enhance solubility for the acquisition of ^13C nmr spectra. Mass spectra were recorded on a Micromass Quattro II mass spectrometer and accurate mass analyses were carried out by the School of Chemistry at the University of Melbourne on a Finnigan LTQ-FT model high resolution mass spectrometer. Thin layer chromatography (TLC) was carried out using Merck silica gel 60 F254 aluminium sheets or Merck neutral aluminium oxide 150 F254 sheets. Flash column chromatography was carried out using Ajax silica gel 230-400 mesh. • xi. […] The details are described in detail in Martin et al (4) (the disclosure of which is included herein in its entirety by way of reference), but briefly, mid-log phase monolayer cultures are incubated with various concentrations of the test drugs for one hour, after which the monolayers are washed and dispersed into single cell suspensions using pronase, and finally appropriate numbers of cells are dispensed into Petri dishes. Colonies are counted after eight days incubation. […] The irradiation (with a dose rate of 0.6 Gy per minute) is started 30 minutes after addition of the test drug. After completion of irradiation, incubation of cultures is continued until the total time of exposure to the drug reaches 60 minutes. Cultures are then washed and plated for clonogenic survival as described for the cytotoxicity experiments.

[2] = test system: transformed human keratinocyte cell line (FEP 1811); experiment: Clonogenic survival cell culture assay for radioprotective activity (12 Gy 137Cs gamma irradiation); format: cell-based; details: 12 Gy; for DMF10 (dose modification factor at a concentration of 10 microM of radioprotector): 10 microM radioprotector; for DMFm (dose modification factor at maximum protection): DMF=Dp/Dc at survival level Sm; for PF (protection factor = Sm/So): survival at maximum protection vs irradiation only
Text: PF is defined as a ratio of survival at maximum protection Sm and survival after irradiation only So: PF=Sm/So. DMF is defined as a ratio of doses that result in survival level of Sm in the presence Dp and the absence Dc of radioprotector: DMF=Dp/Dc. DMF10 is define in a similar way except that instead of Sm a survival at 10 microM of radioprotector is used.
PF (Protection Factor) is defined as a ratio of survival at maximum protection Sm and survival after irradiation only So:PF=Sm/So. DMF (Dose Modification Factor) is defined as a ratio of doses that result in survival level of Sm in the presence (Dp) and the absence (Dc) of radioprotector: DMF=Dp/Dc. DMF10 is defined in a similar way except that instead of Sm a survival at 10 microM of radioprotector is used.
• i. […] In appropriate cases, tautomers are drawn to illustrate potential hydrogen-bond donating configurations into the minor groove of DNA. • ii. 2-Amino-4-(5′-(4″-methylpiperazin-1″-yl)benzimidazol-2′-yl)aniline was prepared by hydrogenation of 4-(5′-(4″-methylpiperazin-1″-yl)benzimidazol-2′-yl)-2-nitroaniline, using a modification of the method of Kelly et al, Aust. […] 2-Amino-4-(5′-(piperidin-1″-yl)benzimidazol-2′-yl)aniline was prepared by hydrogenation of 2-nitro-4-(5′-(piperidin-1″-yl)benzimidazol-2′-yl)aniline, using a modification of the method of Kelly et al, Aust. […] Ethyl 4-amino-3-nitrobenzenecarboximidate hydrochloride was prepared by reaction of 4-amino-3-nitrobenzonitrile with dry HCl gas in ethanol, using the method of Kelly et al, Aust. […] 5-(4′-Methylpiperazin-1′-yl)-2-nitroaniline was prepared using a modification of the method of Kelly et al, Aust. […] The following chemicals were obtained from the chemical suppliers indicated: 2-furaldehyde (Aldrich), 2-pyridinecarboxaldehyde (Aldrich), 3-fluoropyridine-2-carbaldehyde (Maybridge), 3-trifluoromethylpyridine-2-carboxaldehyde (Apollo Scientific), 6-methyl-2-pyridinecarboxaldehyde (Matrix Scientific), 5-methylpyridine-2-carbonitrile (Apollo Scientific), 4-methyl-2-pyridinecarbonitrile (Aldrich), 4-chloro-2-pyridinecarbonitrile (Aldrich), 4-methoxypicolinonitrile (Combi-Blocks), pyrazinecarbonitrile (Aldrich), 2-quinolinecarbonitrile (Aldrich), 3-isoquinolinecarbonitrile (Aldrich), 1-isoquinolinecarboxylic acid (Aldrich), indazole-3-carboxylic acid (Aldrich), 2-hydroxynicotinic acid (Aldrich), 4-hydroxypiperidine (Aldrich), 1-methylhomopiperazine (Aldrich), 3-hydroxypiperidine (Aldrich), 4-(N-BOC-amino)piperidine (Aldrich), 4-methoxypiperidine (Acros), 4-methyl-3-nitrobenzonitrile (Aldrich), 5-chloro-2-nitroaniline (Aldrich), 2-cyanopyridine (Aldrich), methyl 4-amino-2-methoxybenzoic acid (Aldrich), 4-(trifluoromethyl)-2-pyridinecarbonitrile (Matrix Scientific), cis-2,6-dimethylmorphoiline (Acros), 5-(trifluoromethyl)-2-pyridinecarbonitrile (Advanced Chemical Intermediates) and 5-fluoro-2-pyridinecarbonitrile (Advanced Chemical Intermediates). • ix. […] Melting points were determined using an Electrothermal melting point apparatus, and are uncorrected. […] The abbreviations s for singlet, d for doublet, t for triplet, q for quartet, br for broad and m for muitiplet were used in the assignments of multiplicity. A value approximating the centre of a multiplet is quoted. […] The addition of a few drops of acetic acid to methanol-d4 solutions was used to enhance solubility for the acquisition of ^13C nmr spectra. Mass spectra were recorded on a Micromass Quattro II mass spectrometer and accurate mass analyses were carried out by the School of Chemistry at the University of Melbourne on a Finnigan LTQ-FT model high resolution mass spectrometer. Thin layer chromatography (TLC) was carried out using Merck silica gel 60 F254 aluminium sheets or Merck neutral aluminium oxide 150 F254 sheets. Flash column chromatography was carried out using Ajax silica gel 230-400 mesh. • xi.

Compound | IC50 [1] [µM] | DMF10 (dose modification factor at a concentration of 10 microM of radioprotector) [2] | DMFm (dose modification factor at maximum protection) [2] | PF (protection factor = Sm/So) [2] | melting point
CN1CCN(c2ccc3nc(-c4ccc5nc(-c6cc(N(C)C)ccn6)[nH]c5c4)[nH]c3c2)CC1 [Example 10, 4-Dimethylamino-2-(5′-(5″-(4′″-methylpiperazin-1′″-yl)benzimidazol-2″-yl)benzimidazol-2′-yl)pyridine] | 18.6 | 1.39 | 1.51 | 10.1 | 216 to 220 °C
COc1ccnc(-c2nc3ccc(-c4nc5ccc(N6CCN(C)CC6)cc5[nH]4)cc3[nH]2)c1 [Example 11, 4-Methoxy-2-(5′-(5″-(4′″-methylpiperazin-1′″-yl)benzimidazol-2″-yl)benzimidazol-2′-yl)pyridine] | 53.6 | 1.95 | 2.28 | 51.4 | 190 °C (dec.)
CN1CCN(c2ccc3nc(-c4ccc5nc(-c6cnccn6)[nH]c5c4)[nH]c3c2)CC1 [Example 12, 2-(5′-(5″-(4′″-Methylpiperazin-1′″-yl)benzimidazol-2″-yl)benzimidazol-2′-yl)pyrazine] | 54.2 | 1.15 | 1.29 | 6.5 | 175 °C (dec.)
CN1CCN(c2ccc3nc(-c4ccc5nc(-c6cc7ccccc7cn6)[nH]c5c4)[nH]c3c2)CC1 [Example 14, 3-(5′-(5″-(4′″-Methylpiperazin-1′″-yl)benzimidazol-2″-yl)benzimidazol-2′-yl)isoquinoline] | 26 | 2.34 | 2.45 | 25.1 | 224 to 229 °C
CN1CCN(c2ccc3nc(-c4ccc5nc(-c6nccc7ccccc67)[nH]c5c4)[nH]c3c2)CC1 [Example 15, 1-(5′-(5″-(4′″-Methylpiperazin-1′″-yl)benzimidazol-2″-yl)benzimidazol-2′-yl)isoquinoline] | 26.9 | 1.70 | 1.85 | 36.9 | 214 to 217 °C
CN1CCN(c2ccc3nc(-c4ccc5nc(-c6n[nH]c7ccccc67)[nH]c5c4)[nH]c3c2)CC1 [Example 16, 3-(5′-(5″-(4′″-Methylpiperazin-1′″-yl)benzimidazol-2″-yl)benzimidazol-2′-yl)indazole] | 40.9 | 1.78 | 2.16 | 18.3 | 235 °C (dec.)
CN1CCN(c2ccc3nc(-c4ccc5nc(-c6ccc[nH]c6=O)[nH]c5c4)[nH]c3c2)CC1 [Example 18, 3-(5′-(5″-(4′″-Methylpiperazin-1′″-yl)benzimidazol-2″-yl)benzimidazol-2′-yl)pyridin-2(1H)-one] | 66.8 | 1.00 | 1.01 | 1.1 | 244 to 248 °C
c1ccc2cc(-c3nc4ccc(-c5nc6ccc(N7CCOCC7)cc6[nH]5)cc4[nH]3)ncc2c1 [Example 20, 3-(5′-(5″-Morpholinobenzimidazol-2″-yl)benzimidazol-2′-yl)isoquinoline] | 172 | 1.52 | 1.57 | 11.4 | 202 °C (dec.)
Cc1ccnc(-c2nc3ccc(-c4nc5ccc(N6CCOCC6)cc5[nH]4)cc3[nH]2)c1 [Example 21, 2-(5′-(5″-Morpholinobenzimidazol-2″-yl)benzimidazol-2′-yl)-4-methylpyridine] | 213 | 1.47 | 1.77 | 18.2 | 214 to 230 °C
